According to PMC5773577, “Novel Miniature Membrane Active Lipopeptidomimetics against Planktonic and Biofilm Embedded Methicillin-Resistant Staphylococcus aureus” (Scientific Reports, 2018):
Converted amounts (≈) assume the structure as drawn. Read-outs that look alike come from different tables or passages of the source. Non-standard residues stand in square brackets, D forms with d. Residues, ends and D or L forms follow the SMILES beside them. No end group written: not given here. d1Nal = N[C@H](Cc1cccc2ccccc12)C(=O)O; 12Ado = NCCCCCCCCCCCC(=O)O; Aoc = NCCCCCCCC(=O)O

Legend:
MRSA ATCC 33591 = assay: Resistance development over 17 serial passages at sub-MIC; assay type: cell-based, Staphylococcus aureus; settings: for MIC: Staphylococcus aureus
Description: For the experiment, a method as described previously was used with slight modifications. Briefly, for the experiment, on day 1 the initial MICs of all test agents were determined using routine MIC experiment protocol as described earlier. Next day, bacterial cells (100 μL) from the wells with concentrations 2–4 fold less than the MIC value for each test agent were used to set up fresh mid-log phase cultures in MHB medium for setting up the MIC plate. This was repeated for a total of 17 sub-lethal treatments with each antimicrobial agent. For every passage, corresponding glycerol stocks (15% v/v) were made for each culture and were kept at −80 °C for future use.

[1] = tested on: mouse red blood cells (RBCs); assay: Hemolysis assay; assay type: cell-based; settings: mouse RBC, up to 250 μg/mL, 1 h, 37 °C, PBS pH 7.4; 0.1% Triton X-100 = 100%; data not shown
Description: For the experiment, a previously defined procedure was used with slight modifications[67],[68]. Briefly, blood was withdrawn from mice on the day of the experiment. After washing red blood cells (RBC) twice with phosphate buffer saline (PBS: 35 mM sodium phosphate, 150 mM NaCl, pH 7.4), a 4% v/v suspension of RBC was prepared in the same buffer. In a 96-well plate, serial two-fold dilutions of desired concentrations of peptidomimetics (in PBS) were prepared (100 μL) in duplicate. To each well 100 μL of 4% v/v RBC suspension was added. The plates were incubated at 37 °C for 1 h. After 1 h, the plates were centrifuged at 1500 rpm for 10 min and 20 μL of the supernatant was transferred to a fresh 96-well plate containing 80 μL PBS. The hemoglobin release was quantified by measuring OD414 in an ELISA plate reader (Molecular Devices, Sunnyvale, CA, USA). Hemoglobin release from 0.1% Triton X-100 treated RBC was set as 100% lysis (Amax) while as negative control RBC suspended in PBS alone was used (APBS). Percentage hemolysis was calculated using the following equation:1 %hemolysis=[(Asample−APBS)/(Amax−APBS)]×100

[2] = tested on: 3T3 murine fibroblast cell line; assay: Cytotoxicity, MTT assay; assay type: cell-based; settings: 3T3 fibroblasts, 2 h, DMEM with 10% FBS, mean ± S.D., triplicate on two days
Description: For the active peptidomimetics cytotoxicity was measured against 3T3 murine fibroblast cell line using a previously defined MTT assay with slight modifications. Briefly, the cells were grown to over 75% confluence in DMEM supplemented with 10% FBS and antibiotics (1 × Anti-anti) at 37 °C in 5% CO2 atmosphere. The cells were transferred to a 24-well plate to a final count of ~8 × 10^4 cells/well. […] The plates were kept for 2 h at 37 °C in 5% CO2 incubator. After 2 h, the cells were washed once with 1 mL PBS. Then 1 mL MTT (0.1 mg/mL) was added to each well in dark and incubated for 2 h at 37 °C in 5% CO2. After 2 h, 200 μL of DMSO was added to the wells to dissolve the formazan crystals formed and the plates were kept for 5 min in the incubator at 37 °C. 100 μL of the suspension was transferred to a fresh 96-well plate and absorbance (Asample) was measured at 570 nm in an ELISA plate reader (Molecular Devices, Sunnyvale, CA, USA). The wells with DMSO treatment were set as untreated control (Auntreated control). The assay was done in triplicate on two different days. The % survival was calculated using the following equation:2 %survival=[Asample/Auntreatedcontrol]×100

[3] = tested on: Escherichia coli (ATCC 11775); assay type: cell-based
Description: (§1) The antibacterial activity was evaluated as MIC using slight modifications to a serial broth micro dilution method as reported previously[66],[67]. Briefly, to each treatment well of the 96-well plate (Corning Incorporated, USA) 10 μL of peptidomimetic/antibiotic was added and subsequently diluted serial 2-fold in 0.2% BSA (in 0.01% acetic acid). Then to each well of the first 11 columns 100 μL of mid-log phase bacterial suspension in MHB medium was added to get 2–5 × 10^5 CFU/mL. Cultures without test peptidomimetics/antibiotics were used as growth control. Uninoculated MHB medium was used as negative control. The microtitre plates were incubated overnight with agitation (180 rpm) at 37 °C. After 16–18 h incubation, absorbance was read at 600 nm using an ELISA plate reader (Molecular Devices, Sunnyvale, CA, USA). The experiments were carried out in duplicate on at least three different days.

[4] = tested on: Methicillin-resistant S. epidermidis (ATCC 35984); assay: microbe, parasite or virus in culture; assay type: cell-based, Staphylococcus epidermidis; settings: MRSE ATCC 35984; MHB, 2–5 × 10^5 CFU/mL, 16–18 h, 37 °C, OD600
Description: as §1

S. aureus (ISP479R) = assay type: cell-based, Staphylococcus aureus; settings: MHB, 2–5 × 10^5 CFU/mL, 16–18 h, 37 °C, OD600
Description: as §1

MRSA (ATCC 43300) = assay: microbe, parasite or virus in culture; assay type: cell-based, Staphylococcus aureus; settings: MHB, 2–5 × 10^5 CFU/mL, 16–18 h, 37 °C, OD600
Description: as §1

[5] = tested on: E. faecium (E-7846), clinical isolate of vancomycin-resistant E. faecium; assay: organism not typed; assay type: cell-based, Enterococcus faecium; settings: VRE clinical isolate E-7846; MHB, 2–5 × 10^5 CFU/mL, 16–18 h, 37 °C
Description: as §1

S. aureus (ISP479C) = assay: microbe, parasite or virus in culture; assay type: cell-based, Staphylococcus aureus; settings: MHB, 2–5 × 10^5 CFU/mL, 16–18 h, 37 °C, OD600
Description: as §1

For `O=C(O)c1cn(C2CC2)c2cc(N3CCNCC3)c(F)cc2c1=O` [CIP, Ciprofloxacin], the MIC (MRSA ATCC 33591; read-out: final MIC) was 11.3 µg/mL (≈ 34.1 µM), the MIC (MRSA ATCC 33591; read-out: initial MIC) was 0.17 µg/mL (≈ 0.513 µM) and the “fold increase in MIC” value (MRSA ATCC 33591; at 6th passage) was roughly 16 fold. For the same molecule, the “fold increase in MIC” value (MRSA ATCC 33591; over 17 passages (final MIC / initial MIC)) was 66.8 fold.
For `N=C(N)NCCC[C@H](NC(=O)[C@@H](N)Cc1c[nH]c2ccccc12)C(=O)N[C@H](Cc1ccccc1C(F)(F)F)C(=O)N[C@@H](CCCNC(=N)N)C(=O)N[C@@H](Cc1c[nH]c2ccccc12)C(N)=O` [S-2, Trp-Arg-(2-trifluoromethyl-D-Phe)-Arg-Trp-CONH2] (HELM PEPTIDE1{W.R.[O=C([C@@H](Cc1ccccc1C(F)(F)F)N[*:1])[*:2]].R.W.[am]}$$$$V2.0), the “% hemolysis” value [1] was less than 5%.
`N=C(N)NCCC[C@H](NC(=O)[C@@H](N)Cc1c[nH]c2ccccc12)C(=O)N[C@H](Cc1cccc2ccccc12)C(=O)N[C@@H](CCCNC(=N)N)C(=O)N[C@@H](Cc1c[nH]c2ccccc12)C(N)=O` [S-3, Trp-Arg-(D-1-Nal)-Arg-Trp-CONH2] (HELM PEPTIDE1{W.R.[O=C([C@@H](Cc1cccc2ccccc12)N[*:1])[*:2]].R.W.[am]}$$$$V2.0) was tested, and the “% hemolysis” value [1] was less than 5%.
In the case of `N=C(N)NCCC[C@H](NC(=O)CCCCCCCNC(=O)[C@H](CCCNC(=N)N)NC(=O)[C@@H](N)Cc1c[nH]c2ccccc12)C(=O)N[C@@H](Cc1c[nH]c2ccccc12)C(N)=O` [S-5, Trp-Arg-(8-AOA)-Arg-Trp-CONH2] (HELM PEPTIDE1{W.R.[O=C(CCCCCCCN[*:1])[*:2]].R.W.[am]}$$$$V2.0), the “% hemolysis” value [1] is reported as less than 5%.
In the case of `N=C(N)NCCC[C@H](NC(=O)[C@@H](Cc1cccc2ccccc12)NC(=O)CCCCCCCCCCCNC(=O)[C@@H](Cc1cccc2ccccc12)NC(=O)[C@@H](N)CCCNC(=N)N)C(N)=O` [S-8, Arg-(D-1-Nal)-(12-ADO)-(D-1-Nal)-Arg-CONH2] (H-R[d1Nal][12Ado][d1Nal]R-NH2), the “% viable cells relative to untreated control (MTT)” value ([2]; 10× MIC) is reported as 84.8 ± 5.6%, the “% viable cells relative to untreated control (MTT)” value ([2]; 20 × MIC) is reported as 81.1 ± 2.9% and the MIC [3] is reported as 5.6 µg/mL (≈ 6.08 µM). For the same molecule, the “Minimum inhibitory concentration, MIC” value [4] was 1.4 µg/mL (≈ 1.52 µM), the “Minimum inhibitory concentration, MIC” value (S. aureus (ISP479R)) was 0.7 µg/mL (≈ 0.76 µM) and the “Minimum inhibitory concentration, MIC” value (MRSA (ATCC 43300)) was 1.4 µg/mL (≈ 1.52 µM). For the same molecule, the “Minimum inhibitory concentration, MIC” value [5] was 5.6 µg/mL (≈ 6.08 µM).
`N=C(N)NCCC[C@H](NC(=O)[C@@H](Cc1cccc2ccccc12)NC(=O)CCCCCCCNC(=O)[C@@H](Cc1cccc2ccccc12)NC(=O)[C@@H](N)CCCNC(=N)N)C(N)=O` [S-9, Arg-(D-1-Nal)-(8-AOA)-(D-1-Nal)-Arg-CONH2] (H-R[d1Nal][Aoc][d1Nal]R-NH2) was tested, and the “Minimum inhibitory concentration, MIC” value [4] was 45.4 µg/mL (≈ 52.5 µM), the “Minimum inhibitory concentration, MIC” value (S. aureus (ISP479R)) was 45.4 µg/mL (≈ 52.5 µM) and the “Minimum inhibitory concentration, MIC” value (MRSA (ATCC 43300)) was greater than 45.4 µg/mL. For the same molecule, the “Minimum inhibitory concentration, MIC” value (S. aureus (ISP479C)) was 45.4 µg/mL (≈ 52.5 µM) and the “% hemolysis” value [1] was less than 5%.
With “WRWRW-NH2 [S-1, Trp-Arg-Trp-Arg-Trp-CONH2]” the “% hemolysis” value [1] was less than 5%.
